The record followed here is ChEMBL document CHEMBL1201862, “PubChem BioAssay data set” (2004).

Test systems include LOX IMVI; HL-60; SK-MEL-2; SW-620; HCT-116; SK-MEL-5; NCI-H226; SNB-75; HOP-92; HCT-15; HOP-62; SNB-19; SK-MEL-28; U-251; A549; HT-29; BT-549; PC-3; SN12C; SF-268.
Common to all, as to assay: growth of human tumour cells (NCI), 48 h

Each structure is given as a SMILES string.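 1) Cells in 96-well plates. 2) Compound, 48 h, 5 concentrations. 3) Linear interpolation between surrounding doses. 4) Unreached endpoint = highest concentration. GI50 is the concentration that inhibits growth by half.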 Calls of active or inactive are those of the source. Rule as the data show it: active = GI50 up to about 1.1 µM and inactive = higher.

On to `O=C1N/C(=N/N=C/c2ccccc2)N/C1=C\c1c[nH]c2ccccc12`, for which the GI50 with LOX IMVI is 44.1 µM (inactive); in the assay on HL-60, 67.3 µM (inactive); in the assay with SK-MEL-2, > 100 µM (inactive); in the assay on SW-620, 64.4 µM (inactive); with HCT-116, > 100 µM (inactive); in the assay on SK-MEL-5 it was > 100 µM (inactive). The GI50 in the assay with NCI-H226 was 72.6 µM (inactive); with SNB-75 it was > 100 µM (inactive); in the assay on HOP-92, > 100 µM (inactive); in the assay on HCT-15, greater than 100 µM; in the assay with HOP-62 it was 61.4 µM (inactive); with SNB-19, 22.8 µM (inactive). In addition, the GI50 was > 100 µM (inactive) in the assay with SK-MEL-28; 21.9 µM (inactive) in the assay with U-251; 28 µM (inactive) in the assay with A549; > 100 µM (inactive) in the assay on HT-29; > 100 µM (inactive) in the assay with BT-549; 22.6 µM (inactive) with PC-3. Further, the GI50 was 29.2 µM (inactive) with SN12C and 56.6 µM (inactive) in the assay with SF-268.
